Experimental data: PMC5608804, “Stepwise Evolution Improves Identification of Diverse Peptides Binding to a Protein Target” (Scientific Reports, 2017)

molecular target: T1, streptavidin (Streptomyces avidinii, UniProt P22629); experiment: Cy5-streptavidin binding on HotSpot discovery array, 5-mer L-peptide library; details: 5-mer L-peptide library array, Cy5-streptavidin; from average of three arrays
T1 construct: purchased GE Healthcare (Little Chalfont, UK)
Description: To identify hotspot sequences that bind to streptavidin (SA), we bound Cy5-SA to an array library of 2,476,099 5-mer L-peptides synthesized with 19 of 20 natural amino acids (excluding cysteine). The fluorescence signal intensity was aggregated across three independently synthesized arrays; then the 2,047 peptides with a signal-to-background ratio (S/B) >4 were selected. The data was further filtered to select 1,100 peptides for which signal intensities were highly correlated on all 3 arrays (the percentage of mean deviation to mean was <10%, see Supplementary dataset Table 2A). Most selected sequences (1,019 of 1,100) contained HP, PQ, or PM sequences: their presence would be expected in the well-known HPQ and HPM streptavidin binders[13]–[18].
The comprehensive peptide library included 2,476,099 5-mer peptides synthesized in a single copy with 19 of 20 L- or D-amino acids (excluding cysteine). Libraries were flanked on both N- and C-termini by linkers of 1 or 3 amino acids using a 3:1 glycine-serine mixture.
Cy5™-streptavidin (Cy5-SA) was purchased from GE Healthcare (Little Chalfont, UK). Freshly deprotected arrays were used in each experiment. Streptavidin binding to all arrays was performed with 0.5 µg/ml Cy5-SA either in binding buffer containing 10 mM Tris-HCl (pH 7.4), 1% alkali-soluble casein (EMD Millipore), 0.05% Tween-20 or in 10 mM Tris-HCl (pH 7.4), 4% BSA (Roche, Basel, Switzerland), 0.05% Tween-20 in a 30 mL PAP Jar container (Evergreen Scientific, Vernon, CA) overnight at 4° C. After incubation, arrays were washed in 20 mM Tris-HCl (pH 7.8), 0.2 M NaCl, 1% SDS or 1X TBS (pH 7.4) for 30 sec followed by a 1 min wash in water, and then dried by spinning in a microcentrifuge equipped with an array holder.
Cy5 fluorescence intensity of the arrays was measured with an MS200 scanner (Roche NimbleGen, Madison, WI) at resolution 2 µm, wavelength 635 nm, gain 25%, and laser intensity 100%. Cy5 signal intensities were extracted using Image Extraction Software (Roche NimbleGen). Data pre-processing, normalization, and statistical tests were performed using the language R. Data visualization and analysis was performed with the Spotfire 6.5.0 (Tibco, Boston, MA) software platform. Distance analysis and principle component analysis of distance matrices were performed with the R package PEPLIB[19].

T1 sequence (P22629 25-183): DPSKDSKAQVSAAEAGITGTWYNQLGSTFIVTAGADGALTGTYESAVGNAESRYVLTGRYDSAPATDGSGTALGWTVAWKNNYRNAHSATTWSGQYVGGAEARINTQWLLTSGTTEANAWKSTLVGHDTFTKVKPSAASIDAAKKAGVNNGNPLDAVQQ

| Substance | S/B (signal to background ratio) |
| --- | --- |
| THPQQ | 42.4 |
| KHPMA | 27.5 |
| HPQHN | 28.0 |
| WKHPQ | 175.0 |
| WTHPQ | 181.7 |
| LKHPM | 26.3 |
| HRHPQ | 149.4 |
| AHPQG | 120.5 |
| GAHPM | 34.1 |
| FQHPQ | 161.2 |
| HPQIG | 31.0 |
| PDHPM | 23.4 |
| QFHPQ | 180.1 |
| GMHPQ | 126.3 |
| WFHPQ | 178.0 |
| RHPQW | 20.3 |
| TPHPM | 44.1 |
| HPQVH | 57.8 |
| FHHPQ | 219.2 |
| PGHPQ | 168.5 |
| FHPQA | 138.8 |
| PHPQT | 24.1 |

| Substance | S/B (signal to background ratio) |
| --- | --- |
| HPQFS | 123.4 |
| WIHPQ | 166.2 |
| RTHPM | 49.0 |
| LHPQH | 38.5 |
| RHHPM | 53.8 |
| FHPQQ | 49.0 |
| RHPQQ | 43.6 |
| YHPQA | 168.4 |
| GGHPQ | 124.2 |
| IHPQF | 148.4 |
| EEHPQ | 27.3 |
| RHPQG | 124.2 |
| VIHPM | 20.7 |
| FKHPM | 44.4 |
| GNHPQ | 132.4 |
| AVHPM | 23.8 |
| AHPQM | 32.6 |
| HPQNL | 57.7 |
| PAHPQ | 124.5 |
| VWHPQ | 171.7 |
| ERHPQ | 134.2 |
| FWHPQ | 176.5 |

| Substance | S/B (signal to background ratio) |
| --- | --- |
| ASHPQ | 130.1 |
| FHPMV | 27.2 |
| SHPQF | 132.4 |
| SSHPQ | 134.8 |
| HPQFL | 42.4 |
| IAHPM | 46.1 |
| LMHPQ | 161.1 |
| SEHPM | 19.1 |
| MHPQG | 122.9 |
| AFHPQ | 177.5 |
| HPQWG | 26.9 |
| VHPQA | 131.8 |
| NGHPM | 54.5 |
| ELHPQ | 56.4 |
| KFHPM | 29.8 |
| PHHPQ | 140.8 |
| RHPQY | 41.5 |
| PHPQN | 138.6 |
| THPQN | 136.1 |
| PYHPQ | 151.0 |
| VNHPQ | 137.6 |

same assay, conditions: 5-mer L-peptide library array, Cy5-streptavidin; from the average of three arrays

| Substance | S/B (signal to background ratio) |
| --- | --- |
| IHPMA | 70.9 |
| MRHPM | 60.6 |
| EHPQG | 64.3 |
| DPHPQ | 88.5 |
| WEHPM | 69.6 |
| KAHPQ | 77.0 |
| GHPQV | 97.6 |
| QEHPQ | 63.4 |
| LQHPM | 62.8 |
| DTHPQ | 68.3 |
| PHPQS | 95.0 |
| SVHPQ | 116.5 |
| WHPQM | 100.1 |
| HPQNQ | 86.9 |
| MFHPM | 85.4 |
| YRHPM | 71.5 |
| HPQNW | 93.4 |
| WTHPM | 114.6 |
| HMHPM | 61.8 |
| HPQNF | 94.0 |
| WEHPQ | 98.3 |
| HPQGQ | 73.5 |
| VKHPQ | 64.6 |
| MPHPM | 58.7 |
| VWHPM | 71.2 |
| LHPQV | 74.5 |
| WVHPM | 78.5 |
| FSHPM | 91.4 |
| THHPM | 58.0 |

same assay, conditions: 5-mer L-peptide library, from the average of three arrays

| Substance | S/B (signal to background ratio) |
| --- | --- |
| QHPMK | 4.4 |
| KHPMH | 5.1 |
| HPQQK | 4.4 |
| HPWRT | 4.4 |
| HPRWG | 4.2 |
| RHPMR | 4.2 |
| GHPPQ | 5.2 |
| HPMNH | 4.4 |
| FMFMF [L-amino acid 5-mer array peptide] | 4.2 |
| HPWRS | 4.0 |
| WHKPQ | 4.7 |
| DWDSW [L-amino acid 5-mer array peptide] | 4.9 |
| MPQHF | 4.4 |
| GHPMW | 4.4 |
| RHPMD | 4.3 |
| GHPQP | 4.5 |
| PHPMW | 5.2 |
| YHPPQ | 4.7 |

same assay, conditions: average of three arrays, L-peptide 5-mer library

| Substance | S/B (signal to background ratio) |
| --- | --- |
| MAMHF [L-amino acid 5-mer array peptide] | 17.9 |
| FMFMF [L-amino acid 5-mer array peptide] | 4.2 |
| LSAYH [L-amino acid 5-mer array peptide] | 17.7 |
| DWDSW [L-amino acid 5-mer array peptide] | 4.9 |
| PSWAH [L-amino acid 5-mer array peptide] | 7.3 |
| LGRFH [L-amino acid 5-mer array peptide] | 8.7 |
| MLAHF [L-amino acid 5-mer array peptide] | 7.2 |
| FDGWL [L-amino acid 5-mer array peptide] | 6.7 |

same assay, conditions: signal to background ratio; 5-mer L-peptide library array, Cy5-streptavidin

| Substance | S/B |
| --- | --- |
| THPQK | 14.5 |
| LHPMN | 9.7 |
| FHPQK | 14.2 |
| GEHPM | 14.8 |
| DSHPM | 17.9 |
| HPMVS | 8.8 |
| HPQIS | 8.8 |
| HPMGK | 5.3 |
| MAMHF [L-amino acid 5-mer array peptide] | 17.9 |
| WHPQP | 10.7 |
| RHPMM | 11.6 |
| FHPQP | 6.3 |
| HPMPD | 5.4 |
| RHPQP | 7.4 |
| YHPQL | 6.4 |
| HPMPW | 8.2 |
| HPQSI | 7.3 |
| HPWRF | 7.0 |
| LSAYH [L-amino acid 5-mer array peptide] | 17.7 |
| HHPQK | 18.7 |

| Substance | S/B |
| --- | --- |
| QHPMY | 11.3 |
| HPMSA | 8.0 |
| RHPMW | 5.9 |
| PSWAH [L-amino acid 5-mer array peptide] | 7.3 |
| HPQPF | 5.7 |
| HPQLG | 9.1 |
| HPQRF | 7.3 |
| KHPQY | 18.3 |
| LGRFH [L-amino acid 5-mer array peptide] | 8.7 |
| HPMVA | 12.1 |
| HPMAM | 6.5 |
| HPQAM | 18.6 |
| MLAHF [L-amino acid 5-mer array peptide] | 7.2 |
| HPMFA | 17.2 |
| VVHPM | 15.5 |
| FDGWL [L-amino acid 5-mer array peptide] | 6.7 |
| PHPMH | 8.8 |
| LHPMI | 5.3 |
| SHPMY | 11.0 |
| HPMNM | 9.1 |
